Test results published in EPA's CvTdb concentration-time database.

How the values were obtained:
Rat [1] = test: concentration in plasma after dosing; settings: 20 min; dosed: Isoeugenol; 17 mg/kg; oral; Male; F344/N
Rat [2] = test: concentration in plasma after dosing
Rat [3] = test: concentration in plasma after dosing; settings: dosed: Isoeugenol, 17 mg/kg, oral, Male, F344/N
rat [4] = test: concentration in blood after dosing; settings: dosed: styrene, 3000 ppm, dermal, duration: 4 hr, male, F344
Rat [5] = test: concentration in plasma after dosing; settings: 1 h; dosed: Tetralin; 2 mg/kg; iv; Male; Harlan Sprague Dawley
Rat [6] = test: concentration in plasma after dosing; settings: dosed: Tetralin, 2 mg/kg, iv, Male, F344

C/C=C/c1ccc(O)c(OC)c1 [Isoeugenol]
Settings	concentration in plasma [ng/mL]
Rat [1]	105

concentration in plasma [ng/mL], Rat [2], dosed: Isoeugenol, oral, F344/N
Settings	Female	Male
0.5 h, 17 mg/kg	155	87.8
0.5 h, 70 mg/kg	–	312
0.75 h, 17 mg/kg	73.5	73
1 h, 17 mg/kg	57.7	34.4
1.5 h, 17 mg/kg	–	26.5
1.5 h, 70 mg/kg	–	118
2 h, 17 mg/kg	27.7	–
2 min, 17 mg/kg	48.3	53.9
2 min, 70 mg/kg	–	1160
3 h, 17 mg/kg	48.1	–
3 h, 70 mg/kg	–	216
4 h, 17 mg/kg	35.3	37.5
5 h, 17 mg/kg	50.1	–
5 h, 70 mg/kg	–	199
5 min, 17 mg/kg	346	141
5 min, 70 mg/kg	–	683
6 h, 17 mg/kg	32.7	27.6
6 h, 70 mg/kg	–	150
8 h, 17 mg/kg	38.5	–
8 h, 70 mg/kg	–	362
10 min, 17 mg/kg	161	148
10 min, 70 mg/kg	–	499
20 min, 17 mg/kg	358	86.1
20 min, 70 mg/kg	–	672

Rat [3]
Settings	concentration in plasma [ng/mL]
1.5 h	34.3
2 min	38.3

C=Cc1ccccc1 [styrene]
rat [4]
Settings	concentration in blood [ng/mL]
0.5 h	1480
1 h	2090
2 h	4160
3 h	6070
4 h	7610

c1ccc2c(c1)CCCC2 [Tetralin]
Settings	concentration in plasma [µg/g]
Rat [5]	0.0313

concentration in plasma [µg/g], Rat [2], dosed: Tetralin, iv
Settings	F344	Harlan Sprague Dawley
0.25 h, 20 mg/kg, Female	–	9.76
0.2517 h, 2 mg/kg, Male	0.888	–
0.2533 h, 2 mg/kg, Male	–	0.449
0.5033 h, 20 mg/kg, Female	–	2.55
0.505 h, 2 mg/kg, Male	–	0.207
0.5067 h, 2 mg/kg, Male	0.254	–
0.75 h, 2 mg/kg, Male	0.107	0.0681
0.75 h, 20 mg/kg, Female	–	2.11
1 h, 2 mg/kg, Male	0.11	0.0492
1 h, 20 mg/kg, Female	–	2.1
2 h, 2 mg/kg, Male	0.0262	0.0157
2 h, 20 mg/kg, Female	–	0.596
4 h, 2 mg/kg, Male	0.0114	0.0103
4 h, 20 mg/kg, Female	–	0.2
4 h, 20 mg/kg, Male	0.158	–
6 h, 2 mg/kg, Male	0.00667	0.00504
6.017 h, 20 mg/kg, Female	–	0.105
8 h, 2 mg/kg, Male	0.00488	0.00316
8 h, 20 mg/kg, Female	–	0.0424
12 h, 2 mg/kg, Male	0.00332	0.00151
12 h, 20 mg/kg, Female	–	0.0371
24 h, 2 mg/kg, Male	0.00081	–
24 h, 20 mg/kg, Female	–	0.00866
301 s, 20 mg/kg, Male	21	–
303 s, 20 mg/kg, Female	–	23.1
307 s, 2 mg/kg, Male	–	1.68
322 s, 2 mg/kg, Male	1.64	–

Rat [6]
Settings	concentration in plasma [µg/g]
0.75 h	0.134
12 h	0.00182
